Reference: patent US9828360B2 (Array BioPharma Inc., priority 2012, dated 2017)

molecular target: TrkA (Homo sapiens, UniProt P04629); assay: TrkA LanthaScreen Eu Kinase Binding Assay; set-up: 6HIS tagged cytoplasmic domain from Invitrogen, Cat. No. PV3144; purchased Invitrogen PV3144; conditions: averaged IC50 values, read-out: TrkA Enzyme IC50
Experimental: TrkA binding activity was determined in a TrkA LanthaScreen™ Eu Kinase Binding Assay. 5 nM His-tagged recombinant human TrkA (6HIS tagged cytoplasmic domain from Invitrogen, Cat. No. PV3144) was incubated with 4 nM Alexa-Fluor® Tracer 236 (Invitrogen Cat. No. PV5592), 2 nM biotinylated anti-His (Invitrogen Cat. No. PV6090), and 2 nM europium-labeled Streptavidin (Invitrogen Cat. No. PV5899), in buffer (25 mM MOPS, pH 7.5, 5 mM MgCl2, 0.005% Triton X-100). Three fold serial dilutions of compounds of the invention in DMSO were added to a final percentage of 2% DMSO. After 60-minute incubation at 22° C., the reaction was measured using the EnVision mutlimode plate reader (PerkinElmer) via TR-FRET dual wavelength detection at […]. The percent of control was calculated using a ratiometric emission factor. The IC50 values were determined by fitting a four parameter model to the percent of control data.
Table A provides averaged IC50 values for compounds of the invention when tested in the assay of Example A, where A represents an averaged IC50 value <100 nM; and B represents an averaged IC50 value from 100 to 1,000 nM.

Chain of TrkA (P04629 440-796 limits assumed): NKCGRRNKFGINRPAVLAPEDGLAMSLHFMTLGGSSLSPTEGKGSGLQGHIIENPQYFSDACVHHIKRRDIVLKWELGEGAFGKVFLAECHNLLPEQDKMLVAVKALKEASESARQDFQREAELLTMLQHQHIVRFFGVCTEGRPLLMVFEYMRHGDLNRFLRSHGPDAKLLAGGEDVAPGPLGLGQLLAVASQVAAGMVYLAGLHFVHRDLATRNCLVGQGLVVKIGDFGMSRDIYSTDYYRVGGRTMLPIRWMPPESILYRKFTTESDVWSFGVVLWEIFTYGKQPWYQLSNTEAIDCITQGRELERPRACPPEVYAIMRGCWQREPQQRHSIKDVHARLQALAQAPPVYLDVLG

Structure (SMILES) | IC50 [nM]
COCCN1C[C@@H](NC(=O)Nc2oc(-c3ccccc3)nc2C)[C@H](c2ccccc2)C1 [Example 42, 1-((3S,4R)-1-(2-methoxyethyl)-4-phenylpyrrolidin-3-yl)-3-(4-methyl-2-phenyloxazol-5-yl)urea] | 100 to 1000
COCCN1C[C@@H](NC(=O)Nc2cc(=O)n(CC(F)(F)F)nc2-c2ccccc2)[C@H](c2ccc(F)c(F)c2)C1 [Example 35, 1-((3S,4R)-4-(3,4-difluorophenyl)-1-(2-methoxyethyl)pyrrolidin-3-yl)-3-(6-oxo-3-phenyl-1-(2,2,2-trifluoroethyl)-1,6-dihydropyridazin-4-yl)urea] | 100 to 1000
COCCN1C[C@@H](NC(=O)Nc2ccc(C)nc2-c2ccccc2)[C@H](c2ccc(F)cc2)C1 [Example 32, 1-((3S,4R)-4-(4-fluorophenyl)-1-(2-methoxyethyl)pyrrolidin-3-yl)-3-(6-methyl-2-phenylpyridin-3-yl)urea] | < 100
CCOc1ccc(NC(=O)N[C@@H]2CN(CCOC)C[C@H]2c2ccc(F)c(F)c2)c(-c2ccccc2)n1 [Example 25] | < 100
COCCN1C[C@@H](NC(=O)Nc2ccc(=O)[nH]c2-c2ccccc2)[C@H](c2ccc(F)c(F)c2)C1 [Example 20, 1-((3S,4R)-4-(3,4-difluorophenyl)-1-(2-methoxyethyl)pyrrolidin-3-yl)-3-(6-oxo-2-phenyl-1,6-dihydropyridin-3-yl)urea] | < 100
COCCN1C[C@@H](NC(=O)Nc2ccc(Br)nc2-c2ccccc2)[C@H](c2ccc(F)c(F)c2)C1 [Example 11, 1-(6-bromo-2-phenylpyridin-3-yl)-3-((3S,4R)-4-(3,4-difluorophenyl)-1-(2-methoxyethyl)pyrrolidin-3-yl)urea] | < 100
COCCN1C[C@@H](NC(=O)Nc2ccc(C)nc2-c2ccccc2)[C@H](c2cc(F)cc(F)c2)C1 [Example 31, 1-((3S,4R)-4-(3,5-difluorophenyl)-1-(2-methoxyethyl)pyrrolidin-3-yl)-3-(6-methyl-2-phenylpyridin-3-yl)urea] | < 100
COCCN1C[C@@H](NC(=O)Nc2cccnc2-c2ccccc2)[C@H](c2ccc(F)c(F)c2)C1 [Example 19, 1-((3S,4R)-4-(3,4-difluorophenyl)-1-(2-methoxyethyl)pyrrolidin-3-yl)-3-(2-phenylpyridin-3-yl)urea] | < 100
COCCN1C[C@@H](NC(=O)Nc2cc(=O)n(C)nc2-c2ccccc2)[C@H](c2ccc(F)c(F)c2)C1 [Example 34, 1-((3S,4R)-4-(3,4-difluorophenyl)-1-(2-methoxyethyl)pyrrolidin-3-yl)-3-(1-methyl-6-oxo-3-phenyl-1,6-dihydropyridazin-4-yl)urea] | 100 to 1000
COCCN1C[C@@H](NC(=O)Nc2sc(CO)nc2-c2ccccc2)[C@H](c2ccc(F)c(F)c2)C1 [Example 50] | < 100
COCCN1C[C@@H](NC(=O)Nc2sc(C(=O)OC)nc2-c2ccccc2)[C@H](c2ccc(F)c(F)c2)C1 [Example 49, methyl 5-(3-((3S,4R)-4-(3,4-difluorophenyl)-1-(2-methoxyethyl)pyrrolidin-3-yl)ureido)-4-phenylthiazole-2-carboxylate] | 100 to 1000
COCCN1C[C@@H](NC(=O)Nc2sc(-c3ccccc3)nc2C)[C@H](c2ccc(F)c(F)c2)C1 [Example 45, 11-((3S,4R)-4-(3,4-difluorophenyl)-1-(2-methoxyethyl)pyrrolidin-3-yl)-3-(4-methyl-2-phenylthiazol-5-yl)urea] | < 100
COCCN1C[C@@H](NC(=O)Nc2sc(C(=O)N(C)C)nc2-c2ccccc2)[C@H](c2ccc(F)c(F)c2)C1 [Example 52, 5-(3-((3S,4R)-4-(3,4-difluorophenyl)-1-(2-methoxyethyl)pyrrolidin-3-yl)ureido)-N,N-dimethyl-4-phenylthiazole-2-carboxamide] | 100 to 1000
COCCN1C[C@@H](NC(=O)Nc2ccc(-c3cccc(S(C)(=O)=O)c3)nc2C)[C@H](c2ccc(F)c(F)c2)C1 [Example 18, 1-((3S,4R)-4-(3,4-difluorophenyl)-1-(2-methoxyethyl)pyrrolidin-3-yl)-3-(2-methyl-6-(3-(methylsulfonyl)phenyl)pyridin-3-yl)urea] | 100 to 1000
COCCN1C[C@@H](NC(=O)Nc2ccc(S(C)(=O)=O)nc2-c2ccccc2)[C@H](c2ccc(F)c(F)c2)C1 [Example 12, 1-((3S,4R)-4-(3,4-difluorophenyl)-1-(2-methoxyethyl)pyrrolidin-3-yl)-3-(6-(methylsulfonyl)-2-phenylpyridin-3-yl)urea] | < 100
COCCN1C[C@@H](NC(=O)Nc2cc(Br)cnc2-c2ccccc2)[C@H](c2ccccc2)C1 [Example 5, 1-(5-bromo-2-phenylpyridin-3-yl)-3-((3S,4R)-1-(2-methoxyethyl)-4-phenylpyrrolidin-3-yl)urea] | < 100

Structure (SMILES) | IC50 [nM]
CCn1c(=O)c(-c2ccccc2)c(NC(=O)N[C@@H]2CN(CCOC)C[C@H]2c2ccc(F)c(F)c2)n1C [Example 40, 1-((3S,4R)-4-(3,4-difluorophenyl)-1-(2-methoxyethyl)pyrrolidin-3-yl)-3-(1-ethyl-2-methyl-5-oxo-4-phenyl-2,5-dihydro-1H-pyrazol-3-yl)urea] | < 100
COCCN1C[C@@H](NC(=O)Nc2nc(-c3ccccc3)nn2C)[C@H](c2ccc(F)c(F)c2)C1 [Example 54, 1-((3S,4R)-4-(3,4-difluorophenyl)-1-(2-methoxyethyl)pyrrolidin-3-yl)-3-(1-methyl-3-phenyl-1H-1,2,4-triazol-5-yl)urea] | 100 to 1000
COCCN1C[C@@H](NC(=O)Nc2ccc(-c3cccnc3)nc2C)[C@H](c2ccc(F)c(F)c2)C1 [Example 14, 1-((3S,4R)-4-(3,4-difluorophenyl)-1-(2-methoxyethyl)pyrrolidin-3-yl)-3-(6-methyl-[2,3′-bipyridin]-5-yl)urea] | < 100
COCCN1C[C@@H](NC(=O)Nc2ccc(C)nc2-c2ccccc2)[C@H](c2ccc(F)c(F)c2)C1 [Example 29, 1-((3S,4R)-4-(3,4-difluorophenyl)-1-(2-methoxyethyl)pyrrolidin-3-yl)-3-(6-methyl-2-phenylpyridin-3-yl)urea] | < 100
COCCN1C[C@@H](NC(=O)Nc2cc(S(C)(=O)=O)cnc2-c2ccccc2)[C@H](c2ccc(F)c(F)c2)C1 [Example 13, 1-((3S,4R)-4-(3,4-difluorophenyl)-1-(2-methoxyethyl)pyrrolidin-3-yl)-3-(5-(methylsulfonyl)-2-phenylpyridin-3-yl)urea] | < 100
COCCN1C[C@@H](NC(=O)Nc2c(-c3ccccc3)noc2C)[C@H](c2ccccc2)C1 (relative stereo) [Example 37, 1-((trans)-1-(2-methoxyethyl)-4-phenylpyrrolidin-3-yl)-3-(5-methyl-3-phenylisoxazol-4-yl)urea] | 100 to 1000
COCCN1C[C@@H](NC(=O)Nc2cccnc2-c2ccccc2)[C@H](c2ccccc2)C1 (relative stereo) [Example 1, 1-(trans-1-(2-methoxyethyl)-4-phenylpyrrolidin-3-yl)-3-(2-phenylpyridin-3-yl)urea] | < 100
COCCN1C[C@@H](NC(=O)Nc2ccc(Cl)nc2-c2ccccc2)[C@H](c2ccc(F)c(F)c2)C1 [Example 21, 1-(6-chloro-2-phenylpyridin-3-yl)-3-((3S,4R)-4-(3,4-difluorophenyl)-1-(2-methoxyethyl)pyrrolidin-3-yl)urea] | < 100
COCCN1C[C@@H](NC(=O)Nc2cc(Br)cnc2-c2ccccc2)[C@H](c2ccccc2)C1 (relative stereo) [Example 3] | < 100
COCCN1C[C@@H](NC(=O)Nc2c(-c3ccccc3)nc(C)n2C)[C@H](c2ccc(F)c(F)c2)C1 [Example 38, 1-((3S,4R)-4-(3,4-difluorophenyl)-1-(2-methoxyethyl)pyrrolidin-3-yl)-3-(1,2-dimethyl-4-phenyl-1H-imidazol-5-yl)urea] | < 100
COCCN1C[C@@H](NC(=O)Nc2sc(-c3cnn(C)c3)nc2-c2ccccc2)[C@H](c2ccc(F)c(F)c2)C1 [Example 56, 1-((3S,4R)-4-(3,4-difluorophenyl)-1-(2-methoxyethyl)pyrrolidin-3-yl)-3-(2-(1-methyl-1H-pyrazol-4-yl)-4-phenylthiazol-5-yl)urea di(trifluoroacetate)] | < 100
COCCN1C[C@@H](NC(=O)Nc2ccc(-c3ccccc3)nc2C)[C@H](c2ccc(F)c(F)c2)C1 [Example 9, 1-((3S,4R)-4-(3,4-difluorophenyl)-1-(2-methoxyethyl)pyrrolidin-3-yl)-3-(2-methyl-6-phenylpyridin-3-yl)urea] | 100 to 1000
COCCN1C[C@@H](NC(=O)Nc2sc(-c3ccccc3)nc2C)[C@H](c2ccccc2)C1 [Example 46, 1-((3S,4R)-1-(2-methoxyethyl)-4-phenylpyrrolidin-3-yl)-3-(4-methyl-2-phenylthiazol-5-yl)urea] | < 100
COCCN1C[C@@H](NC(=O)Nc2c(-c3ccccc3)nsc2C(N)=O)[C@H](c2ccc(F)c(F)c2)C1 [Example 36, 4-(3-((3S,4R)-4-(3,4-difluorophenyl)-1-(2-methoxyethyl)pyrrolidin-3-yl)ureido)-3-phenylisothiazole-5-carboxamide] | < 100
COCCN1C[C@@H](NC(=O)Nc2cncnc2-c2ccccc2)[C@H](c2ccc(F)c(F)c2)C1 [Example 23, 1-((3S,4R)-4-(3,4-difluorophenyl)-1-(2-methoxyethyl)pyrrolidin-3-yl)-3-(4-phenylpyrimidin-5-yl)urea] | < 100
